For 19 compounds, T/C results are on record in PubChem BioAssay AID330 (DTP/NCI, 2004).

Each structure is given as a SMILES string. Values joined by “and” are separate entries in the source; they are usually repeats but may differ in a detail not shown here. Identical values can stand only once. Inconclusive results and toxic doses are left out.

The assay relates to P388 leukemia ip, CD2F1 mice, survival T/C. Description: NCI In Vivo Anticancer Drug Screen. Data for tumor model P388 Leukemia (intraperitoneal) in CD2F1 (CDF1) mice. The settings on record: endpoint: median survival time, higher = longer survival. In outline: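 Mice carrying the transplanted tumor received test compound or vehicle. Survival was recorded in each group, and the value is the treated-group measurement divided by that of the vehicle-treated control group.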

[1] abbreviates: dose: 60.0 mg/kg/injection, schedule: Q01DX005 (ip), vehicle: saline with Tween-80.
The mark [2] stands for this setting: dose: 120.0 mg/kg/injection, schedule: Q01DX005 (ip), vehicle: saline with Tween-80.
Where [3] appears, read: dose: 240.0 mg/kg/injection, schedule: Q01DX005 (ip), vehicle: saline with Tween-80.
Setting [4] is: dose: 50.0 mg/kg/injection, schedule: Q01DX005 (ip), vehicle: saline with Tween-80.
[5] abbreviates: dose: 100.0 mg/kg/injection, schedule: Q01DX005 (ip), vehicle: saline with Tween-80.
The mark [6] stands for this setting: dose: 200.0 mg/kg/injection, schedule: Q01DX005 (ip), vehicle: saline with Tween-80.
Where [7] appears, read: dose: 50.0 mg/kg/injection, schedule: Q01DX009 (ip), vehicle: saline with Tween-80.
[8] abbreviates: dose: 100.0 mg/kg/injection, schedule: Q01DX009 (ip), vehicle: saline with Tween-80.
The mark [9] stands for this setting: dose: 12.5 mg/kg/injection, schedule: Q01DX009 (ip), vehicle: saline with Tween-80.
[10] abbreviates: dose: 25.0 mg/kg/injection, schedule: Q01DX009 (ip), vehicle: saline with Tween-80.

Turning to `N#Cc1c[nH]n2ccnc12`, the T/C (dose: 60.0 mg/kg/injection, schedule: Q01DX005 (ip), vehicle: Klucel (hydroxypropylcellulose) (HPC)) was 101 % of control; the T/C (dose: 120.0 mg/kg/injection, schedule: Q01DX005 (ip), vehicle: Klucel (hydroxypropylcellulose) (HPC)) was 101 % of control; the T/C (dose: 240.0 mg/kg/injection, schedule: Q01DX005 (ip), vehicle: Klucel (hydroxypropylcellulose) (HPC)) is 105 % of control.

For the compound `COc1cc(C2c3cc4c(cc3[C@@H](OC3OC(COC(C)=O)C(OC(C)=O)C(OC(C)=O)C3OC(C)=O)[C@H]3COC(=O)[C@H]23)OCO4)cc(OC)c1OC` (stereo partly specified), the T/C (dose: 4.0 mg/kg/injection, schedule: Q01DX005 (ip), vehicle: saline) is 107 % of control; the T/C (dose: 8.0 mg/kg/injection, schedule: Q01DX005 (ip), vehicle: saline) was 113 % of control; the T/C (dose: 16.0 mg/kg/injection, schedule: Q01DX005 (ip), vehicle: saline) was 105 % of control; the T/C (dose: 32.0 mg/kg/injection, schedule: Q01DX005 (ip), vehicle: saline) is 98 % of control and 105 % of control; the T/C (dose: 64.0 mg/kg/injection, schedule: Q01DX005 (ip), vehicle: saline) was 100 % of control; the T/C (dose: 128.0 mg/kg/injection, schedule: Q01DX005 (ip), vehicle: saline) was 100 % of control.

With `CC1CC(=O)OC(C(=O)c2ccccc2)N1c1ccc(C(F)(F)F)cc1N` (stereo unspecified), the T/C by setting is: under setting [1], 110 % of control; under setting [2], 108 % of control; under setting [3], 109 % of control.

`OC1=CC(=S)NC(c2ccccc2)C1` (stereo unspecified): the T/C (dose: 50.0 mg/kg/injection, schedule: Q01DX005 (ip), vehicle: Klucel (hydroxypropylcellulose) (HPC)) is 99 % of control; the T/C (dose: 100.0 mg/kg/injection, schedule: Q01DX005 (ip), vehicle: Klucel (hydroxypropylcellulose) (HPC)) is 106 % of control; the T/C (dose: 200.0 mg/kg/injection, schedule: Q01DX005 (ip), vehicle: Klucel (hydroxypropylcellulose) (HPC)) was 108 % of control.

As to `O=C(O)c1c[nH]c2cc(OCc3ccc4ccccc4c3)ccc2c1=O`, the T/C reads like this: (dose: 100.0 mg/kg/injection, schedule: Q04DX003 (ip), vehicle: saline) 90 % of control; (dose: 200.0 mg/kg/injection, schedule: Q04DX003 (ip), vehicle: saline) 97 % of control; (dose: 400.0 mg/kg/injection, schedule: Q04DX003 (ip), vehicle: saline) 87 % of control.

For the compound `O=C1/C(=C/c2ccc(O)cc2)CCC/C1=C\c1ccc(O)cc1`, the T/C is 97 % of control under setting [1], 93 % of control under setting [2] and 92 % of control under setting [3].

For `CC(=O)OCCS(=O)Cc1ccccc1` (stereo unspecified), the T/C runs as follows: (dose: 60.0 mg/kg/injection, schedule: Q01DX005 (ip), vehicle: saline) 92 % of control; (dose: 120.0 mg/kg/injection, schedule: Q01DX005 (ip), vehicle: saline) 94 % of control; (dose: 240.0 mg/kg/injection, schedule: Q01DX005 (ip), vehicle: saline) 100 % of control.

Consider `Cc1cc(C)n(-c2ccc3nnnn3n2)n1`, for which the T/C by setting is: (dose: 100.0 mg/kg/injection, schedule: Q04DX002 (ip), vehicle: saline) 93 % of control; (dose: 200.0 mg/kg/injection, schedule: Q04DX002 (ip), vehicle: saline) 93 % of control; (dose: 400.0 mg/kg/injection, schedule: Q04DX002 (ip), vehicle: saline) 102 % of control.

Take `COc1cc2c(c(OC)c1OC)-c1ccc(SC)c(=O)cc1C(NC(=O)c1ccccc1)CC2` (stereo unspecified): the T/C is, setting by setting: (dose: 2.5 mg/kg/injection, schedule: Q01DX009 (ip), vehicle: Klucel (hydroxypropylcellulose) (HPC)) 155 % of control; (dose: 5.0 mg/kg/injection, schedule: Q01DX009 (ip), vehicle: Klucel (hydroxypropylcellulose) (HPC)) 117 % of control; (dose: 625.0 micrograms/kg/injection, schedule: Q01DX009 (ip), vehicle: Klucel (hydroxypropylcellulose) (HPC)) 112 % of control; (dose: 1250.0 micrograms/kg/injection, schedule: Q01DX009 (ip), vehicle: Klucel (hydroxypropylcellulose) (HPC)) 120 % of control; (dose: 10000.0 micrograms/kg/injection, schedule: Q01DX009 (ip), vehicle: Klucel (hydroxypropylcellulose) (HPC)) 90 % of control.

For `O=[N+]([O-])c1ccc(SN2CCCCC2)c([N+](=O)[O-])c1`, the T/C runs as follows: under setting [4], 100 % of control; under setting [5], 100 % of control; under setting [6], 105 % of control.

Consider `COC(=O)C1=C2Nc3ccccc3C23CCN2C4OC56C7CC4(CN5c4c(OC)cccc4C64CCN5CCC6OCCC6(C7)C54)C4OCCC4(C1)C23` (stereo unspecified), for which the T/C is 101 % of control (dose: 100.0 mg/kg/injection, schedule: Q04DX002 (ip), vehicle: saline with Tween-80); 101 % of control (dose: 200.0 mg/kg/injection, schedule: Q04DX002 (ip), vehicle: saline with Tween-80); 101 % of control (dose: 400.0 mg/kg/injection, schedule: Q04DX002 (ip), vehicle: saline with Tween-80).

Turning to `CCC(C)n1c(C)nc2c(N)cc(C(F)(F)F)cc21` (stereo unspecified), the T/C under setting [4] is 97 % of control, the T/C under setting [5] is 91 % of control and the T/C under setting [6] was 102 % of control.

For the compound `COP(=O)(OC)/C(C)=N/NS(=O)(=O)c1ccc(C)cc1`, the T/C was 91 % of control (dose: 12.5 mg/kg/injection, schedule: Q01DX009 (ip), vehicle: other); 91 % of control (dose: 25.0 mg/kg/injection, schedule: Q01DX009 (ip), vehicle: other); 99 % of control (dose: 50.0 mg/kg/injection, schedule: Q01DX009 (ip), vehicle: other); 100 % of control (dose: 100.0 mg/kg/injection, schedule: Q01DX009 (ip), vehicle: other); 98 % of control (dose: 200.0 mg/kg/injection, schedule: Q01DX009 (ip), vehicle: other); 94 % of control (dose: 400.0 mg/kg/injection, schedule: Q01DX009 (ip), vehicle: other).

As for `Nc1nc(N)c2nc(Sc3ccc(Cl)cc3)c(=O)[nH]c2n1`, the T/C is 97 % of control under setting [7]; 91 % of control under setting [8]; 105 % of control (dose: 200.0 mg/kg/injection, schedule: Q01DX009 (ip), vehicle: saline with Tween-80).

With `CC(=N)c1ccc(C)cc1`, the T/C runs as follows: (dose: 6.25 mg/kg/injection, schedule: Q01DX009 (ip), vehicle: saline with Tween-80) 90 % of control; (dose: 6.25 mg/kg/injection, schedule: Q04DX003 (ip), vehicle: saline with Tween-80) 100 % of control; under setting [9], 90 % of control; (dose: 12.5 mg/kg/injection, schedule: Q04DX003 (ip), vehicle: saline with Tween-80) 95 % of control; under setting [10], 104 % of control; (dose: 25.0 mg/kg/injection, schedule: Q04DX003 (ip), vehicle: saline with Tween-80) 100 % of control.

Regarding `O=C(O)C#Cc1cccnc1`, the T/C by setting is: under setting [1], 106 % of control; under setting [2], 98 % of control; under setting [3], 91 % of control.

Consider `COC1/C=C/OC2(C)Oc3c(C)c(O)c4c(O)c(c(/C=N/N5C(C)CN(Cc6ccccc6C#N)CC5C)c(O)c4c3C2=O)NC(=O)/C(C)=C\C=C\C(C)C(O)C(C)C(O)C(C)C(OC(C)=O)C1C` (stereo unspecified), for which the T/C is, setting by setting: under setting [9], 111 % of control; under setting [10], 118 % of control; under setting [7], 109 % of control; under setting [8], 107 % of control and 108 % of control.

As for `CC(C)n1nnnc1-c1ccccc1`, the T/C by setting is: (dose: 50.0 mg/kg/injection, schedule: Q01DX009 (ip), vehicle: Klucel (hydroxypropylcellulose) (HPC)) 94 % of control; (dose: 100.0 mg/kg/injection, schedule: Q01DX009 (ip), vehicle: Klucel (hydroxypropylcellulose) (HPC)) 94 % of control; (dose: 200.0 mg/kg/injection, schedule: Q01DX009 (ip), vehicle: Klucel (hydroxypropylcellulose) (HPC)) 94 % of control.

`COC(=O)[C@]1(O)Cc2c(O)c3c(c(O)c2[C@@H](OC2CC(N)C(O)C(C)O2)C1)C(=O)c1c(OC)cccc1C3=O` (stereo partly specified): the T/C was 110 % of control (dose: 1.56 mg/kg/injection, schedule: Q01DX009 (ip), vehicle: water); 108 % of control (dose: 3.13 mg/kg/injection, schedule: Q01DX009 (ip), vehicle: water); 109 % of control and 114 % of control (dose: 6.25 mg/kg/injection, schedule: Q01DX009 (ip), vehicle: water); 116 % of control and 118 % of control (dose: 12.5 mg/kg/injection, schedule: Q01DX009 (ip), vehicle: water); 116 % of control (dose: 25.0 mg/kg/injection, schedule: Q01DX009 (ip), vehicle: water).
